Reference: ChEMBL document CHEMBL1145152, “Design, synthesis, and antifolate activity of new analogues of piritrexim and other diaminopyrimidine dihydrofolate reductase inhibitors with omega-carboxyalkoxy or omega-carboxy-1-alkynyl substitution in the side chain” (J Med Chem, 2005)

How the values were obtained:
Dihydrofolate reductase [1] = target: T1, Dihydrofolate reductase (Rattus norvegicus, UniProt Q920D2)
T1 sequence (Q920D2 whole entry): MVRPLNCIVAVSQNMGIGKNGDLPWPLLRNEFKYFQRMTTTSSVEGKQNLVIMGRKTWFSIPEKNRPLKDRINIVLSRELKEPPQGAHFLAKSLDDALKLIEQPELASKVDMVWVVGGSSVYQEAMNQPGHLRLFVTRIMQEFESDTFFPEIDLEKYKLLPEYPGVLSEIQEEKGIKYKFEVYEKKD
Description: Inhibitory concentration against rat DHFR

Dihydrofolate reductase [2] = target: T2, Dihydrofolate reductase (Mycobacterium avium, UniProt O30463)
T2 sequence (O30463 whole entry): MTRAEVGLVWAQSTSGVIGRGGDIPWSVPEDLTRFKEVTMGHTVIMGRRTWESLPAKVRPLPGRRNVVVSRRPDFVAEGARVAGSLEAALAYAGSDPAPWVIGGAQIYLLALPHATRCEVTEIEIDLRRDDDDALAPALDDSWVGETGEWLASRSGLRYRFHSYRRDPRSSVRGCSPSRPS
Description: Inhibitory concentration against Mycobacterium avium DHFR

[3] = Selectivity index measured as IC50(Rat)/IC50(Mycobacterium avium)
[4] = Concentration causing inhibition of CCRF-CEM human leukemic lymphoblasts growth in 72 hr culture; format: functional, cell-based
Dihydrofolate reductase [5] = target: T3, Dihydrofolate reductase (Pneumocystis carinii, UniProt P16184)
T3 sequence (P16184 whole entry): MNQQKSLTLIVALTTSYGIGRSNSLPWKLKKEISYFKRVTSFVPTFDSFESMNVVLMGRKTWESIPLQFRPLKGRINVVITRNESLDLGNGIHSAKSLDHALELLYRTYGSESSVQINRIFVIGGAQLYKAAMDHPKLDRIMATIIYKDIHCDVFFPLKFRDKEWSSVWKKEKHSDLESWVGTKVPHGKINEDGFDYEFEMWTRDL
Description: Inhibitory concentration against Pneumocystis carinii DHFR

[6] = target: T4, Bifunctional dihydrofolate reductase-thymidylate synthase (Toxoplasma gondii, UniProt Q07422)
T4 sequence (Q07422 whole entry): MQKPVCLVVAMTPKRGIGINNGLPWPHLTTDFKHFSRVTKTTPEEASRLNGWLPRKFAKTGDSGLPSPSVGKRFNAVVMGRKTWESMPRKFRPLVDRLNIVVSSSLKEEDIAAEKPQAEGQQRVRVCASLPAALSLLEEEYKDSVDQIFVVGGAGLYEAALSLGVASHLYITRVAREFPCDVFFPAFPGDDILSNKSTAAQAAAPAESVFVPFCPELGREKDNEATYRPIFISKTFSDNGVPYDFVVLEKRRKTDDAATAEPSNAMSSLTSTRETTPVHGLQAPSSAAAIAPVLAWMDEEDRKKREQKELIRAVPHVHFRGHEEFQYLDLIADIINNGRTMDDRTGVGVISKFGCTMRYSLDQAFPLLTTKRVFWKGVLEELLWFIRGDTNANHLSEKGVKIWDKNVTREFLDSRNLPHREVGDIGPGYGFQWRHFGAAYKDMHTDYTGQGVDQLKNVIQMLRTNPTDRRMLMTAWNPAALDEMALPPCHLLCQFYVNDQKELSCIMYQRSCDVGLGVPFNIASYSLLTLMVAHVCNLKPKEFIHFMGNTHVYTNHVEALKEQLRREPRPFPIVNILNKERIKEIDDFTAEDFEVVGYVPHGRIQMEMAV
Description: Inhibitory concentration against Toxoplasma gondii DHFR

[7] = Concentration causing inhibition of CCRF-CEM human leukemic lymphoblasts growth in a 72 hr culture; format: functional, cell-based

SMILES	IC50 (Dihydrofolate reductase [1]) [nM]	IC50 (Dihydrofolate reductase [2]) [nM]	Selectivity index [3]	IC50 [4] [nM]	IC50 (Dihydrofolate reductase [5]) [nM]	IC50 [6] [nM]	IC50 [7] [nM]
COc1ccc(OCCCC(=O)O)c(Cc2cnc3nc(N)nc(N)c3c2C)c1	9.1	0.32	28	5300	0.17	2.3	–
COc1ccc(C#CCCCC(=O)O)cc1Cc1cnc2nc(N)nc(N)c2c1C	5.7	1	5.6	–	1.4	4.3	6100
COc1ccc(I)c(Cc2cnc3nc(N)nc(N)c3c2C)c1	4	1.8	2.2	–	3.8	5.8	–
CCOC(=O)CCCCCOc1ccc(OC)c(Cc2cnc3nc(N)nc(N)c3c2C)c1	21	12	1.8	–	35	13	–
COc1ccc(OC)c(Cc2cnc3nc(N)nc(N)c3c2C)c1 [PIRITREXIM]	–	–	–	–	–	–	13
COc1ccc(I)cc1Cc1cnc2nc(N)nc(N)c2c1C	5	0.92	5.4	–	5.8	4.1	–
Nc1nc(N)c2nc(CN3c4ccccc4C=Cc4c(C#CCCCC(=O)O)cccc43)cnc2n1	1300	6.3	210	–	12	21	–
COc1ccc(C#CCCCC(=O)O)c(Cc2cnc3nc(N)nc(N)c3c2C)c1	24	1.3	18	2800	1.2	5.8	–
COc1ccc(OCCCCC(=O)O)cc1Cc1cnc2nc(N)nc(N)c2c1C	2.2	0.29	7.5	–	0.51	2.3	–
COc1ccc(OCc2ccccc2)c(Cc2cnc3nc(N)nc(N)c3c2C)c1	170	8.6	20	–	96	16	–
CCOC(=O)CCCOc1ccc(OC)cc1Cc1cnc2nc(N)nc(N)c2c1C	93	5.6	17	–	83	10	–
CCOC(=O)CCCCOc1ccc(OC)c(Cc2cnc3nc(N)nc(N)c3c2C)c1	14	9.4	1.5	–	28	11	–
Nc1nc(N)c2nc(CN3c4ccccc4C=Cc4c(C#CCCC(=O)O)cccc43)cnc2n1	560	2.9	190	–	230	77	–
COc1ccc(OCCCC(=O)O)cc1Cc1cnc2nc(N)nc(N)c2c1C	2.2	0.26	8.5	3700	0.43	1.9	–
COc1ccc(C#CCCC(=O)O)c(Cc2cnc3nc(N)nc(N)c3c2C)c1	55	0.57	96	–	0.65	4.1	–
CCOC(=O)CCCOc1ccc(OC)c(Cc2cnc3nc(N)nc(N)c3c2C)c1	4.2	1.8	2.3	–	6.5	3.4	–
COc1cc(Cc2cnc(N)nc2N)cc(C#CCCC(=O)O)c1Br	630	0.47	1300	–	71	15	–
COc1ccc(OCCCCCC(=O)O)cc1Cc1cnc2nc(N)nc(N)c2c1C	2	0.35	5.9	–	1.3	2	–
COc1ccc(C#CCCC(=O)O)cc1Cc1cnc2nc(N)nc(N)c2c1C	0.32	0.057	5.6	–	0.097	0.46	–
COc1ccc(C#CCCCCC(=O)O)cc1Cc1cnc2nc(N)nc(N)c2c1C	4	0.69	5.8	–	1.8	3.2	–
